From PubChem BioAssay (NCI)
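The compound was tested at five concentrations on cells cultured in 96-well plates, with a 48-hour exposure period. GI50: concentration for 50% inhibition of growth. TGI: total growth inhibition.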

Legend:
Experiment in all cases: DTP human tumour cell line panel, 48 h
A498 renal = system: A498 renal
ACHN renal = system: ACHN renal
CAKI-1 renal = system: CAKI-1 renal
HCT-116 colon = system: HCT-116 colon
NCI-H460 lung = system: NCI-H460 lung
OVCAR-4 ovarian = system: OVCAR-4 ovarian
OVCAR-5 ovarian = system: OVCAR-5 ovarian
SF-539 CNS = system: SF-539 CNS
SN12C renal = system: SN12C renal
SR leukemia = system: SR leukemia

Row | Compound | GI50 (A498 renal) | TGI (A498 renal) | GI50 (ACHN renal) | TGI (ACHN renal) | GI50 (CAKI-1 renal) | TGI (CAKI-1 renal) | GI50 (HCT-116 colon) | TGI (HCT-116 colon) | GI50 (NCI-H460 lung) | TGI (NCI-H460 lung) | GI50 (OVCAR-4 ovarian) | TGI (OVCAR-4 ovarian) | GI50 (OVCAR-5 ovarian) | TGI (OVCAR-5 ovarian) | GI50 (SF-539 CNS) | TGI (SF-539 CNS) | GI50 (SN12C renal) | TGI (SN12C renal) | GI50 (SR leukemia) | TGI (SR leukemia)
1 | Cc1ccc(NC(=O)c2cccc(C(C)(C)C#N)c2)cc1Nc1ccc2ncn(C)c(=O)c2c1 | 0.742 µM | 4.08 µM | 1.73 µM | > 100 µM | 2.96 µM | > 100 µM | 0.1 µM | > 100 µM | 2.76 µM | > 100 µM | 3.9 µM | > 100 µM | 0.123 µM | > 100 µM | 3.32 µM | > 100 µM | 4.94 µM | > 100 µM | 4.79 µM | > 100 µM
2 | Cc1cc2ncnn2cc1Nc1ncc2c(n1)n(C1CCOCC1)c(=O)n2C | 0.319 µM | 2.22 µM | 9.97 µM | > 100 µM | 2.88 µM | 52.2 µM | 10.7 µM | > 100 µM | 4.74 µM | > 100 µM | 3.94 µM | 42.9 µM | 5.81 µM | > 100 µM | 9.63 µM | 51.5 µM | 6.21 µM | > 100 µM | 3.42 µM | 52.9 µM
3 | c1ccc(Sc2ccc(Cc3nc4cc5ccccc5cc4[nH]3)cc2)cc1 | 21.5 µM | 57.8 µM | 13.2 µM | > 75.1 µM | 11.7 µM | 48.8 µM | 2.98 µM | 20.7 µM | 0.21 µM | > 100 µM | 57.5 µM | > 100 µM | 17.9 µM | 98.8 µM | 1.34 µM | 19.5 µM | 16.8 µM | 76.5 µM | 26 µM | > 100 µM
4 | COc1ccc2[nH]c3c4[nH]c5ccc(OC)cc5c4c4c(c3c2c1)C(=O)NC4=O | 7.36 µM | > 25 µM | > 6.71 µM | > 25 µM | 1.77 µM | > 25 µM | > 11 µM | > 25 µM | > 10.3 µM | > 25 µM | > 25 µM | > 25 µM | > 25 µM | > 25 µM | 1.31 µM | > 17 µM | 1.19 µM | > 25 µM | 1.29 µM | > 25 µM
5 | Cc1cc(NS(=O)(=O)c2ccc(Nc3c4ccccc4nc4c(C(=O)N5CCN(CCO)CC5)cccc34)cc2)no1 | – | > 100 µM | – | > 100 µM | – | > 100 µM | – | > 100 µM | – | > 100 µM | – | > 100 µM | – | > 100 µM | – | > 100 µM | – | > 100 µM | – | > 100 µM
6 | CCCC(CCC)NCC(O)c1cc(-c2ccc(C(F)(F)F)cc2)nc(C(F)(F)F)c1 (stereo not given) | 1.35 µM | 2.67 µM | 1.63 µM | 3.16 µM | 1.94 µM | 3.98 µM | 1.66 µM | 3.24 µM | 1.77 µM | 3.4 µM | 1.83 µM | 3.32 µM | 1.55 µM | 2.95 µM | 1.67 µM | 3.26 µM | 1.69 µM | 3.2 µM | 1.4 µM | 3.27 µM
